Assay results published in patent US9999650B2, “Peptide and peptidomimetic inhibitors” (Ra Pharmaceuticals, Inc., priority 2012, dated 2018).
Numbered stars: 1 amine (or outer) side, 2 acyl side, 3 side chain; on linkers, the order of the positions; unused ones are H or OH. Bridge positions count the residues as written; N and C are the ends. Square brackets hold non-standard residues; d marks the D form. Peptide text beside a SMILES is read from it. * marks the point of attachment. mXylylene = c1cc(C[*:1])cc(C[*:2])c1; Phg = N[C@H](C(=O)O)c1ccccc1; Heptanoyl = CCCCCCC(=O)*

Key:
Format in all cases: biochemical
Factor VIIa = molecular target: T1, Factor VIIa (Homo sapiens, UniProt P08709); assay: Inhibitor specificity IC50 assay, Factor VIIa (Boc-Val-Pro-Arg-AMC); conditions: substrate Boc-Val-Pro-Arg-AMC
T1 construct: Factor VIIa (Enzyme Research Laboratories, South Bend, Ind.); purchased Enzyme Research Laboratories
T1 sequence (P08709 61-212 limits assumed): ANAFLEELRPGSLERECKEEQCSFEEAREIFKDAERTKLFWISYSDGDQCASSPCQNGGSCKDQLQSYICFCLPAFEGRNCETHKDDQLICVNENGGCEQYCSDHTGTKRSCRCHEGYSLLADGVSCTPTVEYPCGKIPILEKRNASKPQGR
T1 sequence (P08709 213-466 limits assumed): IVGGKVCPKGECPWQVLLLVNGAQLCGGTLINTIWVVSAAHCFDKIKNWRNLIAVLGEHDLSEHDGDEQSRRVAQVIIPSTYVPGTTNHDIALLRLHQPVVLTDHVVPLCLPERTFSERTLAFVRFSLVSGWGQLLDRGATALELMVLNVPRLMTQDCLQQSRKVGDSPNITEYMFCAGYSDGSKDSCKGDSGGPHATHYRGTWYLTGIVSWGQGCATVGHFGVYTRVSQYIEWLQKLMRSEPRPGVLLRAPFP
Description: (§1) Ten 8-fold serial dilutions of peptides (10 mM DMSO stocks) were performed in DMSO and then added to TCNB (50 mM Tris-HCl pH 7.2, 150 mM NaCl, 10 mM CaCl2, 0.05% Brij-35) and sonicated. 50 μL of the peptide dilutions were added to microtitre plates (96 well, black non-binding surface, Corning, 3650) and incubated for 5 minutes at room temperature with 4 nM activated human kallikrein (final concentration after addition of fluorogenic substrate: 1 nM). The samples were then incubated for 1 hour at room temperature with 2 mM H-Pro-Phe-Arg-AMC (final concentration 500 μM). Relative Fluorescence Units (RFU) were measured at excitation/emission 360 nm/460 nm by a SpectraMax M3.
(§2) To determine the specificity of peptide inhibitors, an IC50 assay, as described in Example 4, was performed on a variety of serine proteases related to human plasma kallikrein. The enzymes tested include mouse plasma kallikrein (R&D Systems, Minneapolis, Minn.), and the human enzymes Factor VIIa (Enzyme Research Laboratories, South Bend, Ind.), Factor Xa (Enzyme Research Laboratories, South Bend, Ind.), Factor XIa (Enzyme Research Laboratories, South Bend, Ind.), Factor XIIa (Enzyme Research Laboratories, South Bend, Ind.), tissue kallikrein KLK13 (R&D Systems, Minneapolis, Minn.), thrombin (Enzyme Research Laboratories, South Bend, Ind.) and plasmin (Enzyme Research Laboratories, South Bend, Ind.).
(§3) Each enzyme was tested with the following specific fluorgenic substrates (available from Bachem; Torrance, Calif.): mouse plasma kallikrein (Pro-Phe-Arg-AMC), Factor VIIa (Boc-Val-Pro-Arg-AMC), Factor Xa (Boc-Gln-Gly-Arg-AMC), Factor XIa (Boc-Gln-Gly-Arg-AMC), Factor XIIa (Boc-Gln-Gly-Arg-AMC), KLK13 (Boc-Val-Pro-Arg-AMC), thrombin (Boc-Val-Pro-Arg-AMC) and plasmin (Boc-Val-Leu-Lys-AMC). Peptide inhibitors R2006, R2010, R2012, R2019, R2023, R2030, R2036, R2041, R2047, R2104 and R2051 were assayed.

Factor Xa = molecular target: T2, Factor Xa (Homo sapiens, UniProt P00742); assay: Inhibitor specificity IC50 assay, Factor Xa (Boc-Gln-Gly-Arg-AMC); conditions: substrate Boc-Gln-Gly-Arg-AMC
T2 construct: Factor Xa (Enzyme Research Laboratories, South Bend, Ind.); purchased Enzyme Research Laboratories
Description: (§4) Activated human plasma kallikrein (Enzyme Research Laboratories, HPKa 1303) was reacted with H-Pro-Phe-Arg-7-amido-4-methylcoumarin (H-Pro-Pre-Arg-AMC) (a fluorogenic substrate for plasma as well as pancreatic and urinary kallikreins; Bachem I-1295) and candidate inhibitory peptides to determine the IC50 of the inhibitor.
as §1, §2, §3

Factor XIa = molecular target: T3, Factor XIa (Homo sapiens, UniProt P03951); assay: Inhibitor specificity IC50 assay, Factor XIa (Boc-Gln-Gly-Arg-AMC); conditions: substrate Boc-Gln-Gly-Arg-AMC
T3 construct: Factor XIa (Enzyme Research Laboratories, South Bend, Ind.); purchased Enzyme Research Laboratories
Description: as §4, §1, §2, §3

Factor XIIa = molecular target: T4, Factor XIIa (Homo sapiens, UniProt P00748); assay: Inhibitor specificity IC50 assay, Factor XIIa (Boc-Gln-Gly-Arg-AMC); conditions: substrate Boc-Gln-Gly-Arg-AMC
T4 construct: Factor XIIa (Enzyme Research Laboratories, South Bend, Ind.); purchased Enzyme Research Laboratories
T4 sequence (P00748 373-615 limits assumed): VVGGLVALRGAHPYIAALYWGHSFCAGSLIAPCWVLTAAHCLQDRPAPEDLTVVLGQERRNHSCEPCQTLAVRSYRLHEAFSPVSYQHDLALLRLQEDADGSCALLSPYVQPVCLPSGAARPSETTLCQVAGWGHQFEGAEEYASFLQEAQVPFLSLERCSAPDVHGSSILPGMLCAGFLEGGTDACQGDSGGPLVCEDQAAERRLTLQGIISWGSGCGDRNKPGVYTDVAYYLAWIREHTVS
Description: as §4, §1, §2, §3

tissue kallikrein KLK13 = molecular target: T5, tissue kallikrein KLK13 (Homo sapiens, UniProt Q9UKR3); assay: Inhibitor specificity IC50 assay, KLK13 (Boc-Val-Pro-Arg-AMC); conditions: substrate Boc-Val-Pro-Arg-AMC
T5 construct: purchased R&D Systems
T5 sequence (Q9UKR3 17-277): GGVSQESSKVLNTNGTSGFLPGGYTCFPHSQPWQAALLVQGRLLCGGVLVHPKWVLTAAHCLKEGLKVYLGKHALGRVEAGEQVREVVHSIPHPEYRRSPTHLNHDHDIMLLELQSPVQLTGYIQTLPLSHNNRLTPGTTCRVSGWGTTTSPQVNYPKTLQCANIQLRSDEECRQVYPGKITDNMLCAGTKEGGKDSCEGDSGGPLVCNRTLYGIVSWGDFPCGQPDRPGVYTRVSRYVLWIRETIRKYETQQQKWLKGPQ
Description: as §4, §1, §2, §3

thrombin = molecular target: T6, thrombin (Homo sapiens, UniProt P00734); assay: Inhibitor specificity IC50 assay, thrombin (Boc-Val-Pro-Arg-AMC); conditions: substrate Boc-Val-Pro-Arg-AMC
T6 construct: thrombin (Enzyme Research Laboratories, South Bend, Ind.); purchased Enzyme Research Laboratories
Description: as §4, §1, §2, §3

plasmin = molecular target: T7, plasmin (Homo sapiens, UniProt P00747); assay: Inhibitor specificity IC50 assay, plasmin (Boc-Val-Leu-Lys-AMC); conditions: substrate Boc-Val-Leu-Lys-AMC
T7 construct: plasmin (Enzyme Research Laboratories, South Bend, Ind.); purchased Enzyme Research Laboratories
Description: as §4, §1, §2, §3

human plasma kallikrein = molecular target: T8, human plasma kallikrein (Homo sapiens, UniProt P03952); assay: Enzyme inhibition assay (fluorogenic substrate H-Pro-Phe-Arg-AMC); conditions: Kallikrein inhibitory activity; 1 nM activated human kallikrein, 500 μM H-Pro-Phe-Arg-AMC, 1 hour room temperature; read-out: Avg. IC50
T8 construct: purchased Enzyme Research Laboratories HPKa 1303
Procedure, shortened: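 Activated enzyme (1 nM final) was preincubated 5 min at room temperature with peptides in 10-point 8-fold dilutions. The buffer was 50 mM Tris-HCl pH 7.2, 150 mM NaCl, 10 mM CaCl2, 0.05% Brij-35. After 1 h at room temperature with 500 μM substrate (final), fluorescence was read at 360/460 nm to derive IC50.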

T2 sequence (P00742 41-179 limits assumed): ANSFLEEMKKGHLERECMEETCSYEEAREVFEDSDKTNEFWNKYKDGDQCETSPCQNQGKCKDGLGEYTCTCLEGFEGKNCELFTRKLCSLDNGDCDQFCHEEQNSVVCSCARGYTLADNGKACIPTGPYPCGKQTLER
T2 sequence (P00742 235-488 limits assumed): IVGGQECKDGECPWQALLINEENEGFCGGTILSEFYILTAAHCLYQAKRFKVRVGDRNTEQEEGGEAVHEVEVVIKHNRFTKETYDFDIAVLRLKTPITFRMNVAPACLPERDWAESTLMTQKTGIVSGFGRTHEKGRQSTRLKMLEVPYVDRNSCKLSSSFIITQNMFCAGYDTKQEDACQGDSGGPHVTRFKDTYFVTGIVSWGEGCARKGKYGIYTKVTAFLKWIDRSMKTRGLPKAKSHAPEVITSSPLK
T8 sequence (P03952 20-390 limits assumed): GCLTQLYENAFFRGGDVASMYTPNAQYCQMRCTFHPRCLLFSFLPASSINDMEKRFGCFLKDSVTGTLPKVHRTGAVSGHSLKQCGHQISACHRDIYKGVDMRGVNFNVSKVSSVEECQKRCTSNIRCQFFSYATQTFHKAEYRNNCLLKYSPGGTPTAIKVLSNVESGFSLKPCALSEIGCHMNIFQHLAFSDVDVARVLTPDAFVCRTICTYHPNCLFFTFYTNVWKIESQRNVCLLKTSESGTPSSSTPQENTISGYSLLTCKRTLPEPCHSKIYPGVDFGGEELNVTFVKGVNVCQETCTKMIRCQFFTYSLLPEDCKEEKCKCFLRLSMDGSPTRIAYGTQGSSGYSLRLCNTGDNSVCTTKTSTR
T8 sequence (P03952 391-638 limits assumed): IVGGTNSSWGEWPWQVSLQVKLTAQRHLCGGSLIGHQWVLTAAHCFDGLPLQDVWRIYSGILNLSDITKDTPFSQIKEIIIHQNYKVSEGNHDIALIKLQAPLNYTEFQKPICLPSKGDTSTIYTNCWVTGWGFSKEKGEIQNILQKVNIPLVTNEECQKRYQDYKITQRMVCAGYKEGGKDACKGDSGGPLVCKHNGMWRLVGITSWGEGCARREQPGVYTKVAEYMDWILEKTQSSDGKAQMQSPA
T3 sequence (P03951 19-387 limits assumed): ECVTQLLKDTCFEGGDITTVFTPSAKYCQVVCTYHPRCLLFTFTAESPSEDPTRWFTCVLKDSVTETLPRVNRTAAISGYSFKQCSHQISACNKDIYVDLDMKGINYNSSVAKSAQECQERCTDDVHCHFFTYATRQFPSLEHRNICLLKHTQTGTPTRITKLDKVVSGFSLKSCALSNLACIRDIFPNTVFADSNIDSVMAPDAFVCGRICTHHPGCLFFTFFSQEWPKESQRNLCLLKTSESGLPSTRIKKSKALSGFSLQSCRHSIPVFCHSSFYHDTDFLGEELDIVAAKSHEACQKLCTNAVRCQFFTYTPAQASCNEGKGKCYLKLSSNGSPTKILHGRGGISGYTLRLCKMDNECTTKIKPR
T3 sequence (P03951 388-625 limits assumed): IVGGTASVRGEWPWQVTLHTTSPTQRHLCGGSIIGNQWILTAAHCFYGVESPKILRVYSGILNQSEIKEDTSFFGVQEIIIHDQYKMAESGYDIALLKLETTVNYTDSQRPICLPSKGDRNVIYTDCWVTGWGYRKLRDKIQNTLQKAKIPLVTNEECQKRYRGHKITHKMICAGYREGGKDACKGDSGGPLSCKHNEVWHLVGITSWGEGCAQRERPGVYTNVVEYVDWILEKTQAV
T7 sequence (P00747 97-580 limits assumed): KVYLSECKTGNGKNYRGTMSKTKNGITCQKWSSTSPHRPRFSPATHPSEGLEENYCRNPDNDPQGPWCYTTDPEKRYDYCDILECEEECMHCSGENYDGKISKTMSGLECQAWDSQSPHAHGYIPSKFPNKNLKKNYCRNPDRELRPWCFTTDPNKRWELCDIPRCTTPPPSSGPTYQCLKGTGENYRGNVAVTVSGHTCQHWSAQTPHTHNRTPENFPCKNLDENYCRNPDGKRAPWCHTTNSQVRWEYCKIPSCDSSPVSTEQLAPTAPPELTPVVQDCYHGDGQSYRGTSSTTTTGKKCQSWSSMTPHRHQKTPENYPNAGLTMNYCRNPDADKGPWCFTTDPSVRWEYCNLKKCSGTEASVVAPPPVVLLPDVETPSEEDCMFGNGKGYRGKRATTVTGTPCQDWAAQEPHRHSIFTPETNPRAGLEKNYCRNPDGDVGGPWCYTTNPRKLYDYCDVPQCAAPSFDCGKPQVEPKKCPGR
T7 sequence (P00747 581-810 limits assumed): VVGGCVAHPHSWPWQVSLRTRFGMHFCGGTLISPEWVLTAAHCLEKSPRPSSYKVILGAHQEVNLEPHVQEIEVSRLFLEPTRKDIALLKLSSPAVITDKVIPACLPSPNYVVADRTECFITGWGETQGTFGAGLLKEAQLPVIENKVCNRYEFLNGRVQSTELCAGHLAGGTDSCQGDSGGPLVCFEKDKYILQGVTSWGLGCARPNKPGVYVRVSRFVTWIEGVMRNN

Row | Structure (SMILES) | IC50 (Factor VIIa) [µM] | IC50 (Factor Xa) [µM] | IC50 (Factor XIa) [µM] | IC50 (Factor XIIa) [µM] | IC50 (tissue kallikrein KLK13) [µM] | IC50 (thrombin) [µM] | IC50 (plasmin) [µM] | IC50 (human plasma kallikrein) [µM]
1 | CC[C@H](C)[C@@H]1NC(=O)[C@H](CO)NC(=O)[C@@H](C)NC(=O)[C@@H](NC(C)=O)CSCc2cccc(c2)CSC[C@@H](C(=O)N[C@@H](CCCNC(=N)N)C(=O)N[C@H](C(N)=O)C(C)C)NC1=O [Compound R2047, [mXylyl(1,5)]Ac-C-a-SICRV-NH2] (Ac-C[dA]SICRV-NH2; linker 1-5 via mXylylene) | > 100 | > 100 | > 13.8 | > 100 | > 100 | > 100 | > 100 | –
2 | CSCC[C@H](N)C(=O)N[C@@H](CS)C(=O)N[C@@H](CC(N)=O)C(=O)N[C@@H](Cc1ccc(O)cc1)C(=O)N[C@@H](Cc1c[nH]c2ccccc12)C(=O)N[C@@H](CO)C(=O)N1CCC[C@H]1C(=O)N[C@@H](Cc1c[nH]c2ccccc12)C(=O)N[C@H](C(=O)N[C@@H](CCC(=O)O)C(=O)N[C@@H](CS)C(=O)N[C@@H](CO)C(=O)N[C@@H](C)C(N)=O)[C@@H](C)O [Compound R2104, MCNYWSPWTECSA-NH2] (H-MCNYWSPWTECSA-NH2) | > 100 | > 100 | > 5 | > 100 | > 100 | > 100 | – | 0.0034
3 | CCCCCCC(=O)N[C@H]1CSCc2cccc(c2)CSC[C@@H](C(=O)N[C@@H](CCCNC(=N)N)C(=O)N[C@H](C(N)=O)C(C)C)NC(=O)[C@H]([C@@H](C)CC)NC(=O)[C@H](CO)NC(=O)[C@H](CCC(=O)O)NC1=O [Compound R2041, [mXylyl(1,5)]Heptanoyl-CESICRV-NH2] (Heptanoyl-CESICRV-NH2; linker 1-5 via mXylylene) | > 17.9 | > 7 | > 5.4 | > 100 | > 100 | > 100 | > 100 | 0.0242
4 | CSCC[C@H](N)C(=O)N[C@H]1CSCc2cccc(c2)CSC[C@@H](C(=O)N[C@@H](CCCNC(=N)N)C(=O)N[C@H](C(N)=O)C(C)C)NC(=O)[C@H](c2ccccc2)NC(=O)[C@H](CO)NC(=O)[C@H](CCC(=O)O)NC1=O [Compound R2012, [mXylyl(2,6)]MCES-Phg-CRV-NH2] (H-MCES[Phg]CRV-NH2; linker 2-6 via mXylylene; N-terminus assumed) | – | – | > 8.3 | – | > 100 | – | – | 0.0083
5 | CC(=O)N[C@@H](CS)C(=O)N[C@@H](CC(N)=O)C(=O)N[C@@H](Cc1ccc(O)cc1)C(=O)N[C@@H](Cc1c[nH]c2ccccc12)C(=O)N[C@H](CO)C(=O)N1CCC[C@H]1C(=O)N[C@@H](Cc1c[nH]c2ccccc12)C(=O)N[C@H](C(=O)N[C@@H](C)C(=O)N[C@@H](CS)C(N)=O)[C@@H](C)O [Compound R2230, Ac-CNYWsPWTAC-NH2] (Ac-CNYW[dS]PWTAC-NH2) | – | – | – | – | – | – | – | > 6.58
6 | CC[C@@H](C)[C@@H]1NC(=O)[C@@H]2CCCN2C(=O)CCCCCCC/C=C/C[C@@H](C(=O)N[C@@H](CCCNC(=N)N)C(=O)N[C@H](C(N)=O)C(C)C)NC1=O [Compound R2244] | – | – | – | – | – | – | – | > 50
